Results as given in patent EP4722207A1, “OXOISOINDOLINYL-SUBSTITUTED TETRAHYDROPYRIMIDINEDIONE DERIVATIVE AND USE THEREOF” (Gluetacs Therapeutics (Shanghai) Co., Ltd., priority 2023, dated 2024).

Tests used:
[1] = target: T1, IKZF2 (Homo sapiens, UniProt Q96SW2+Q9UKS7); assay: Western-blot assay, substrate protein degradation in hPBMCs: IKZF2; format: cell-based; conditions: compounds at 50 nM and 500 nM, 24 hours
T1 construct: effects of the compounds of the present disclosure on the expression of target proteins in cells; endogenous in cells; host or cells: human PBMCs (hPBMCs)
T1 sequence (Q9UKS7 whole entry): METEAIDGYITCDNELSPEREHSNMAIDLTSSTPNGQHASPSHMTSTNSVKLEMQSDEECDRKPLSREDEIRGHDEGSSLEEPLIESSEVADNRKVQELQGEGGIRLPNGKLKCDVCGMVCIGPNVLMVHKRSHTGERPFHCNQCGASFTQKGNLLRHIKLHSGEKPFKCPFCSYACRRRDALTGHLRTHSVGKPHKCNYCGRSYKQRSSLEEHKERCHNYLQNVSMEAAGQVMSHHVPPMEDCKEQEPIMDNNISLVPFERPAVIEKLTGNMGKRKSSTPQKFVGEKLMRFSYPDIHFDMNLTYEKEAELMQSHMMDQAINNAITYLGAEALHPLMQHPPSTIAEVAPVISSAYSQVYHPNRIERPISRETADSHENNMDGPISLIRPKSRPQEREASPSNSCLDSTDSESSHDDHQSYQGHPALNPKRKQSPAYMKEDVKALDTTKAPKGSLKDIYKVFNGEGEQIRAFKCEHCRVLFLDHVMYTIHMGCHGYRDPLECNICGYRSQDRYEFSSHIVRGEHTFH
T1 sequence (Q96SW2 whole entry): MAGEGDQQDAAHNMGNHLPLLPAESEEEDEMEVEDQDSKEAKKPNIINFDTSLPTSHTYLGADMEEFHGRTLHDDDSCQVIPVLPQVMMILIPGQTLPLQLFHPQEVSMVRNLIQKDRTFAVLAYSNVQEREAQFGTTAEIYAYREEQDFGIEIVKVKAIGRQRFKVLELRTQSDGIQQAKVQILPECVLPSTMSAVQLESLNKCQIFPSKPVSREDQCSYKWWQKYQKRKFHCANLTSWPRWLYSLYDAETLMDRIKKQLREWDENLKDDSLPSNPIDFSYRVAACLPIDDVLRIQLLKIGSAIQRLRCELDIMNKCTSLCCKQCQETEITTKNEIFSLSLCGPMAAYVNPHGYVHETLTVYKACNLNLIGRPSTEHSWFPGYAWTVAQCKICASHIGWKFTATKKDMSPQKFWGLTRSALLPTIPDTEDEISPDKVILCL
T1 sequence (Q16531 whole entry partner): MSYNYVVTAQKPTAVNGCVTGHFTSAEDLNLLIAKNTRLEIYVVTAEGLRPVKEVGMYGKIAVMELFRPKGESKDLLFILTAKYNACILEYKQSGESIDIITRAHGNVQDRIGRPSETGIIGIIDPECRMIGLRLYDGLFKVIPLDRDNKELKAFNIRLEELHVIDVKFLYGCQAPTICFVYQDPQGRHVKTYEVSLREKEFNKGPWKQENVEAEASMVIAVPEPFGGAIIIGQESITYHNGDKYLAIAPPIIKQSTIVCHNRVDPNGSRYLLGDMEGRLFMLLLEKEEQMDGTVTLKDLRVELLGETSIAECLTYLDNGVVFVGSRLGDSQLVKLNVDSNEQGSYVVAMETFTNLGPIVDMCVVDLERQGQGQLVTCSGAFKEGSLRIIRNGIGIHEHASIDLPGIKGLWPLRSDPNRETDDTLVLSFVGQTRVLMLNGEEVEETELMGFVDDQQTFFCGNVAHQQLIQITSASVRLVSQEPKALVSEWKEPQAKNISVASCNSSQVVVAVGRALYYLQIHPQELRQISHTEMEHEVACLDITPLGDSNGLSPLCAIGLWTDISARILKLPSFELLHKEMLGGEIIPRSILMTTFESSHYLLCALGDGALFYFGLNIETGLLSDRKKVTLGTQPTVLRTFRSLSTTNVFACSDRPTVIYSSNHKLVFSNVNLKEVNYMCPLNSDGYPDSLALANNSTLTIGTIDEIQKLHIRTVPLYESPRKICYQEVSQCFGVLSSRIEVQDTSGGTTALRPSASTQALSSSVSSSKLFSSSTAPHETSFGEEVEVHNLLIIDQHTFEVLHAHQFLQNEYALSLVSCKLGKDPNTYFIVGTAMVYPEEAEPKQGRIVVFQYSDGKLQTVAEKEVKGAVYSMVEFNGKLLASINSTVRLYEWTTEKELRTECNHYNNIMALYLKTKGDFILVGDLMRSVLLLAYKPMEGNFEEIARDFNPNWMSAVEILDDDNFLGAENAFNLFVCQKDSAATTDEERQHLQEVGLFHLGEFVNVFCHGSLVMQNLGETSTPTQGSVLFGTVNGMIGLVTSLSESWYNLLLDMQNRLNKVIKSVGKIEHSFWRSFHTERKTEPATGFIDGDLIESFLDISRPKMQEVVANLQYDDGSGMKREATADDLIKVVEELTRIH

[2] = target: T2, IKZF3 (Homo sapiens, UniProt Q96SW2+Q9UKT9); assay: Western-blot assay, substrate protein degradation in hPBMCs: IKZF3; format: cell-based; conditions: compounds at 50 nM and 500 nM, 24 hours
T2 construct: effects of the compounds of the present disclosure on the expression of target proteins in cells; endogenous in cells; host or cells: human PBMCs (hPBMCs)
T2 sequence (Q9UKT9 whole entry): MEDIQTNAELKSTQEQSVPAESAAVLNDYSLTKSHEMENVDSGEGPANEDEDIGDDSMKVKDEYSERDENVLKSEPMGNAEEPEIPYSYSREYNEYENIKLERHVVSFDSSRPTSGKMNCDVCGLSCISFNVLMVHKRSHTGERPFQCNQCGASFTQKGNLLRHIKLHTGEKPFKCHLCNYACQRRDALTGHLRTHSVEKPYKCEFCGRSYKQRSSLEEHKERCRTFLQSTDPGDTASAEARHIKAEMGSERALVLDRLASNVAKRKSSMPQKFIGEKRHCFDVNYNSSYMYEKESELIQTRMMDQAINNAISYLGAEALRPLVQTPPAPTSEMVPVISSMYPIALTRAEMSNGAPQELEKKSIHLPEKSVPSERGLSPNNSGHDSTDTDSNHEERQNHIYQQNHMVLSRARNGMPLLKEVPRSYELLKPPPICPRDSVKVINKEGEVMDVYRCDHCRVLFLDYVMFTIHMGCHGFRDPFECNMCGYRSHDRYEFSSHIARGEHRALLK
T2 sequence (Q96SW2 whole entry): as the sequence (Q96SW2 whole entry) above
T2 sequence (Q16531 whole entry partner): as the sequence (Q16531 whole entry partner) above

[3] = system: MM.1S; assay: Cell viability assay (CellTiter-Meiluncell Luminescent), tumor cell proliferation, MM.1S; conditions: Homo sapiens, MM1.S, 96 h, read-out: inhibitory activity (IC50, nM) against tumor cells proliferation, MM.1S
[4] = target: T3, IKZF1 (Homo sapiens, UniProt Q13422+Q96SW2); assay: Western-blot assay, substrate protein degradation in hPBMCs: IKZF1; format: cell-based; conditions: compounds at 50 nM and 500 nM, 24 hours
T3 construct: effects of the compounds of the present disclosure on the expression of target proteins in cells; endogenous in cells; host or cells: human PBMCs (hPBMCs)
T3 sequence (Q13422 whole entry): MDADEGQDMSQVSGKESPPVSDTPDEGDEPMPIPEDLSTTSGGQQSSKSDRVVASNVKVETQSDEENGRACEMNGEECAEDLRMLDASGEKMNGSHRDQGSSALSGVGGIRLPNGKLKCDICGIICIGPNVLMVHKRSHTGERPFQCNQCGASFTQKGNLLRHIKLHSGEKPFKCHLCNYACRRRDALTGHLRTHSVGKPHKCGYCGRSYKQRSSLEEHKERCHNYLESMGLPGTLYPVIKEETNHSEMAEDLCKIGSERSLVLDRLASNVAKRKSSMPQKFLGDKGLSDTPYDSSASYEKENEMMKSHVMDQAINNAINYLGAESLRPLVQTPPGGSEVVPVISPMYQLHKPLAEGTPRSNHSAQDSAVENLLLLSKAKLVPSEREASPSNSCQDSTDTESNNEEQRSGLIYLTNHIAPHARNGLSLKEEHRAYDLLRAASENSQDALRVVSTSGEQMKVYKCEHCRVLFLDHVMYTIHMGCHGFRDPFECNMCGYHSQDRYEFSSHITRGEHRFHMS
T3 sequence (Q96SW2 whole entry): as the sequence (Q96SW2 whole entry) above
T3 sequence (Q16531 whole entry partner): as the sequence (Q16531 whole entry partner) above

[5] = target: T4, WEE1 (Homo sapiens, UniProt P30291+Q96SW2); assay: Western-blot assay, substrate protein degradation in hPBMCs: WEE1; format: cell-based; conditions: compounds at 50 nM and 500 nM, 24 hours
T4 construct: effects of the compounds of the present disclosure on the expression of target proteins in cells; endogenous in cells; host or cells: human PBMCs (hPBMCs)
T4 sequence (P30291 whole entry): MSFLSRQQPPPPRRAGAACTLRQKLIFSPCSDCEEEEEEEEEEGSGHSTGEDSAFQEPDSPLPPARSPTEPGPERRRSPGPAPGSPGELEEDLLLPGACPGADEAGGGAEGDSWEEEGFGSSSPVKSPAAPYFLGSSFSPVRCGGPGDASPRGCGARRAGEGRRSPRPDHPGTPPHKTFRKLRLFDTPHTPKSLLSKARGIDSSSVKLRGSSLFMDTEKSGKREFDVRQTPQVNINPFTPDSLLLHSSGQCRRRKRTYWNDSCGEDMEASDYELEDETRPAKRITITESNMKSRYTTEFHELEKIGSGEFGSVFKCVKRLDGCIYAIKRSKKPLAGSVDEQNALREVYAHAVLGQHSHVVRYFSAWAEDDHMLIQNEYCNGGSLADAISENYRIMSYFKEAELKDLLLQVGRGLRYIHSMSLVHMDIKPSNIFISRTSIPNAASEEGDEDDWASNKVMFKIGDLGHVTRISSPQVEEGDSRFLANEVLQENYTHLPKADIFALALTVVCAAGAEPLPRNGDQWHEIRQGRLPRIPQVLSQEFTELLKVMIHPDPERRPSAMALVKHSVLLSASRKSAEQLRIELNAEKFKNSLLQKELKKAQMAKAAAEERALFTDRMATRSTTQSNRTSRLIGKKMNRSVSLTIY
T4 sequence (Q96SW2 whole entry): as the sequence (Q96SW2 whole entry) above
T4 sequence (Q16531 whole entry partner): as the sequence (Q16531 whole entry partner) above

[6] = target: T5, CK1α (Homo sapiens, UniProt P48729+Q96SW2); assay: Western-blot assay, substrate protein degradation in hPBMCs: CK1α; format: cell-based; conditions: compounds at 50 nM and 500 nM, 24 hours
T5 construct: effects of the compounds of the present disclosure on the expression of target proteins in cells; endogenous in cells; host or cells: human PBMCs (hPBMCs)

[7] = target: T6, GSPT1 (Homo sapiens, UniProt P15170+Q96SW2); assay: Western-blot assay, substrate protein degradation in hPBMCs: GSPT1; format: cell-based; conditions: compounds at 50 nM and 500 nM, 24 hours
T6 construct: effects of the compounds of the present disclosure on the expression of target proteins in cells; endogenous in cells; host or cells: human PBMCs (hPBMCs)
T6 sequence (P15170 whole entry): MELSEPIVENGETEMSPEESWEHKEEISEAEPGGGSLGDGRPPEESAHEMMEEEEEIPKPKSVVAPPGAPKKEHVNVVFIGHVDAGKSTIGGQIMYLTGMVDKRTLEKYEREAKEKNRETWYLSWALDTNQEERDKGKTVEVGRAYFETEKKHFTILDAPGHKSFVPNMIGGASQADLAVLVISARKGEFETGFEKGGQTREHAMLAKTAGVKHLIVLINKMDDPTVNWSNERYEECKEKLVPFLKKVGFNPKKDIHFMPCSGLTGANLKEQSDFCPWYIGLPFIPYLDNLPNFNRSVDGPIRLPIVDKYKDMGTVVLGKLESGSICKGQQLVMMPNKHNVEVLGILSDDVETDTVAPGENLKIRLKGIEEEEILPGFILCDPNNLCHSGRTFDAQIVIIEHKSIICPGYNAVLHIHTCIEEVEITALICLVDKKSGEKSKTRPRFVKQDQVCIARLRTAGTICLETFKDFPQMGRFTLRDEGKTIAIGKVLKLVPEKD
T6 sequence (Q96SW2 whole entry): as the sequence (Q96SW2 whole entry) above
T6 sequence (Q16531 whole entry partner): as the sequence (Q16531 whole entry partner) above

Row | Structure (SMILES) | IKZF2 substrate protein remaining % [1] | IKZF3 substrate protein remaining % [2] | IC50 [3] | IKZF1 substrate protein remaining % [4] | WEE1 substrate protein remaining % [5] | CK1α substrate protein remaining % [6] | GSPT1 substrate protein remaining % [7]
1 | O=C1CCN(N2Cc3cc(CN4CC=C(c5ccoc5)CC4)ccc3C2=O)C(=O)N1 [GT-04875, 1-(5-((4-(furan-3-yl)-3,6-dihydropyridin-1(2H)-yl)methyl)-1-oxoisoindolin-2-yl)dihydropyrimidine-2,4(1H,3H)-dione] | B ("B" is defined as 80%< substrate protein remaining %≤ 100%) | B ("B" is defined as 80%< substrate protein remaining %≤ 100%) | 300 to 500 nM | B ("B" is defined as 80%< substrate protein remaining %≤ 100%) | A ("A" is defined as 0% ≤ substrate protein remaining % ≤ 80%) | B ("B" is defined as 80%< substrate protein remaining %≤ 100%) | A ("A" is defined as 0% ≤ substrate protein remaining % ≤ 80%)
2 | O=C1CCN(N2Cc3cc(CN4CCN(C(c5ccc(F)cc5)c5ccc(F)cc5)CC4)ccc3C2=O)C(=O)N1 [GT-04894, 1-(5-((4-(bis(4-fluorophenyl)methyl)piperazin-1-yl)methyl)-1-oxoisoindolin-2-yl)dihydropyrimidine-2,4(1H,3H)-dione] | A ("A" is defined as 0% ≤ substrate protein remaining % ≤ 80%) | B ("B" is defined as 80%< substrate protein remaining %≤ 100%) | 500 to 1000 nM | A ("A" is defined as 0% ≤ substrate protein remaining % ≤ 80%) | A ("A" is defined as 0% ≤ substrate protein remaining % ≤ 80%) | B ("B" is defined as 80%< substrate protein remaining %≤ 100%) | A ("A" is defined as 0% ≤ substrate protein remaining % ≤ 80%)
3 | CC1(C)CCC(CN2CCN(Cc3ccc4c(c3)CN(N3CCC(=O)NC3=O)C4=O)CC2)=C(c2ccc(Cl)cc2)C1 [GT-04944, 1-(5-((4-((4'-chloro-5,5-dimethyl-3,4,5,6-tetrahydro-[1,1'-biphenyl]-2-yl)methyl)piperazin-1-yl)methyl)-1-oxoisoindolin-2-yl)dihydropyrimidine-2,4(1H,3H)-dione] | B ("B" is defined as 80%< substrate protein remaining %≤ 100%) | B ("B" is defined as 80%< substrate protein remaining %≤ 100%) | 500 to 1000 nM | B ("B" is defined as 80%< substrate protein remaining %≤ 100%) | B ("B" is defined as 80%< substrate protein remaining %≤ 100%) | B ("B" is defined as 80%< substrate protein remaining %≤ 100%) | A ("A" is defined as 0% ≤ substrate protein remaining % ≤ 80%)
4 | O=C1CCN(N2Cc3cc(CN4CCN(c5cccc(Cl)n5)CC4)ccc3C2=O)C(=O)N1 [GT-05126, 1-(5-((4-(6-chloropyridin-2-yl)piperazin-1-yl)methyl)-1-oxoisoindolin-2-yl)dihydropyrimidine-2,4(1H,3H)-dione] | A ("A" is defined as 0% ≤ substrate protein remaining % ≤ 80%) | A ("A" is defined as 0% ≤ substrate protein remaining % ≤ 80%) | 300 to 500 nM | A ("A" is defined as 0% ≤ substrate protein remaining % ≤ 80%) | A ("A" is defined as 0% ≤ substrate protein remaining % ≤ 80%) | A ("A" is defined as 0% ≤ substrate protein remaining % ≤ 80%) | A ("A" is defined as 0% ≤ substrate protein remaining % ≤ 80%)
5 | O=C1CCN(N2Cc3cc(CN4CCN(c5ccc(Cl)cn5)CC4)ccc3C2=O)C(=O)N1 [GT-05127, 1-(5-((4-(5-chloropyridin-2-yl)piperazin-1-yl)methyl)-1-oxoisoindolin-2-yl)dihydropyrimidine-2,4(1H,3H)-dione] | B ("B" is defined as 80%< substrate protein remaining %≤ 100%) | A ("A" is defined as 0% ≤ substrate protein remaining % ≤ 80%) | 500 to 1000 nM | A ("A" is defined as 0% ≤ substrate protein remaining % ≤ 80%) | A ("A" is defined as 0% ≤ substrate protein remaining % ≤ 80%) | A ("A" is defined as 0% ≤ substrate protein remaining % ≤ 80%) | A ("A" is defined as 0% ≤ substrate protein remaining % ≤ 80%)
6 | O=C1CCN(N2Cc3cc(CN4C[C@@H]5C[C@H]4CN5c4cccc(Cl)c4Cl)ccc3C2=O)C(=O)N1 [GT-05163, 1-(5-(((1S,4S)-5-(2,3-dichlorophenyl)-2,5-diazabicyclo[2.2.1]heptan-2-yl)methyl)-1-oxoisoindolin-2-yl)dihydropyrimidine-2,4(1H,3H)-dione] | A ("A" is defined as 0% ≤ substrate protein remaining % ≤ 80%) | A ("A" is defined as 0% ≤ substrate protein remaining % ≤ 80%) | 500 to 1000 nM | A ("A" is defined as 0% ≤ substrate protein remaining % ≤ 80%) | B ("B" is defined as 80%< substrate protein remaining %≤ 100%) | B ("B" is defined as 80%< substrate protein remaining %≤ 100%) | A ("A" is defined as 0% ≤ substrate protein remaining % ≤ 80%)
7 | O=C1CCN(N2Cc3cc(CN4CCC(c5c[nH]c6cc(F)ccc56)CC4)ccc3C2=O)C(=O)N1 [GT-05164, 1-(5-((4-(6-fluoro-1H-indol-3-yl)piperidin-1-yl)methyl)-1-oxoisoindolin-2-yl)dihydropyrimidine-2,4(1H,3H)-dione] | A ("A" is defined as 0% ≤ substrate protein remaining % ≤ 80%) | B ("B" is defined as 80%< substrate protein remaining %≤ 100%) | 100 to 300 nM | A ("A" is defined as 0% ≤ substrate protein remaining % ≤ 80%) | B ("B" is defined as 80%< substrate protein remaining %≤ 100%) | B ("B" is defined as 80%< substrate protein remaining %≤ 100%) | A ("A" is defined as 0% ≤ substrate protein remaining % ≤ 80%)
8 | O=C1CCN(N2Cc3cc(CN4CCC(N5CCc6cc(F)ccc65)CC4)ccc3C2=O)C(=O)N1 [GT-05165, 1-(5-((4-(5-fluoroindolin-1-yl)piperidin-1-yl)methyl)-1-oxoisoindolin-2-yl)dihydropyrimidine-2,4(1H,3H)-dione] | A ("A" is defined as 0% ≤ substrate protein remaining % ≤ 80%) | B ("B" is defined as 80%< substrate protein remaining %≤ 100%) | 500 to 1000 nM | B ("B" is defined as 80%< substrate protein remaining %≤ 100%) | B ("B" is defined as 80%< substrate protein remaining %≤ 100%) | B ("B" is defined as 80%< substrate protein remaining %≤ 100%) | A ("A" is defined as 0% ≤ substrate protein remaining % ≤ 80%)
